For assay [1], the target named is T1, Drosophila Grd and LCCH3 (Drosophila melanogaster, UniProt Q08832+Q24352).
T1 construct: made in house; host or cells: High Five (Trichoplusia ni) cells, co-infected with vBP8-Grd and vBP8-LCCH3
T1 sequence (Q24352 59-686): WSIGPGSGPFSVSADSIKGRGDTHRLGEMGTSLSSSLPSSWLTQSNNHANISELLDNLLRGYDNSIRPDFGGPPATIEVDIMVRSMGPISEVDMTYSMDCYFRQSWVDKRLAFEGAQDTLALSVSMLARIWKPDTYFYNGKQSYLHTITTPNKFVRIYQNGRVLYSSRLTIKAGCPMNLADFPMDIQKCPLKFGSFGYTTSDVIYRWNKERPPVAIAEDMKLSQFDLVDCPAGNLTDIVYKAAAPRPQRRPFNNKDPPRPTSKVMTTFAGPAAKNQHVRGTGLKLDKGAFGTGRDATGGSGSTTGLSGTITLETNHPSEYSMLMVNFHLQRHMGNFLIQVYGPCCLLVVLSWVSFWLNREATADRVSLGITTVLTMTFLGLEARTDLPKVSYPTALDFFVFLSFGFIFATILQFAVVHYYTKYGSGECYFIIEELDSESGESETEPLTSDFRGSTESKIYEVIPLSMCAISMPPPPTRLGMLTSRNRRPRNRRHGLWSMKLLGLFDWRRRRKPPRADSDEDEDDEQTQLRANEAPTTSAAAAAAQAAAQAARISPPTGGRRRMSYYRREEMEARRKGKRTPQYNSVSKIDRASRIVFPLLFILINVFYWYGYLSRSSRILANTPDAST
T1 sequence (Q08832 21-496): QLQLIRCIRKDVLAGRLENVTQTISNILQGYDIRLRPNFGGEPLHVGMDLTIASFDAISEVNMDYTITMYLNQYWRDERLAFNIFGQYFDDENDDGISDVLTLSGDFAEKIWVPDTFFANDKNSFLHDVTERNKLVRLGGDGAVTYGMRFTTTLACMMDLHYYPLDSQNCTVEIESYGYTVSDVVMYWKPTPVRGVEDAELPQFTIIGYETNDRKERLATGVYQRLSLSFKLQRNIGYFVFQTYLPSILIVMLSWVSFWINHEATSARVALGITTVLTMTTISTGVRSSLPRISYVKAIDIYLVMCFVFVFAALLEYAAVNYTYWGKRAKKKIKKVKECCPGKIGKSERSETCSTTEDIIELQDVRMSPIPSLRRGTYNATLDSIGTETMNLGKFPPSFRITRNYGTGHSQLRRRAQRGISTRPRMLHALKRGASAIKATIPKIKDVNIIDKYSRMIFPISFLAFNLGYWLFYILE
Nature of the assay: [3H] muscimol radioligand binding assay, membranes of High Five cells co-infected with vBP8-Grd/vBP8-LCCH3. On the procedure: (§1) High Five™ cells (derived from the cabbage loper, Trichoplusia ni, Invitrogen Corp.) were infected with vBP8-Rdl, vBP8-LCCH3, or vBP8-Grd, either singly or in various combinations. Cells were harvested at 3 days post-infection in tubes of approximately 6×10^7 cells per tube, the cells were pelleted by centrifugation, the supernatants discarded, and the pellets immediately stored at -80° C. This amount of tissue is sufficient for one 96-well microtiter plate. Membranes were prepared by first thawing and then resuspending the cell pellet in 25 mL of 10 mM phosphate buffer pH 7.4. The cells were gently homogenized with five strokes in a glass/Teflon homogenizer and the membranes pelleted by centrifugation at 120,000 g for 30 minutes. The membrane pellet was resuspended in 25 mL of 10 mM phosphate buffer pH 7.4, re-pelleted as above, and the pellet finally resuspended in 3 mL of buffer. The protein concentration was determined by the Bradford method (Bradford (1976) Anal. Biochem. 79:248) and then adjusted to 625 μg of protein per mL of 10 mM PBS, pH 7.4.
The radioligand binding assays were composed of 200 μL membrane preparation (containing 125 μg protein), 100 μL of [^3 H] muscimol (to give a final concentration of 5 nM), 20 μL of unlabeled test compound, buffer or unlabeled muscimol, and 680 μL of 10 mM PBS, pH 7.4. […] The reactions were incubated for 90 minutes at 4° C., and then terminated by filtration through Whatman GF/B glass fiber filters. Filters were washed with two 5 mL aliquots of cold buffer, and the radioactivity remaining on the filters was determined by liquid scintillation. Multiple assays were performed to test numerous compounds.

Assay [2] concerns the target T2, Drosophila Rdl (Drosophila melanogaster, UniProt P25123).
T2 construct: excised the full-length cDNA encoding Rdl; made in house; host or cells: High Five (Trichoplusia ni) cells, baculovirus vBP8-Rdl
T2 sequence (P25123 45-606): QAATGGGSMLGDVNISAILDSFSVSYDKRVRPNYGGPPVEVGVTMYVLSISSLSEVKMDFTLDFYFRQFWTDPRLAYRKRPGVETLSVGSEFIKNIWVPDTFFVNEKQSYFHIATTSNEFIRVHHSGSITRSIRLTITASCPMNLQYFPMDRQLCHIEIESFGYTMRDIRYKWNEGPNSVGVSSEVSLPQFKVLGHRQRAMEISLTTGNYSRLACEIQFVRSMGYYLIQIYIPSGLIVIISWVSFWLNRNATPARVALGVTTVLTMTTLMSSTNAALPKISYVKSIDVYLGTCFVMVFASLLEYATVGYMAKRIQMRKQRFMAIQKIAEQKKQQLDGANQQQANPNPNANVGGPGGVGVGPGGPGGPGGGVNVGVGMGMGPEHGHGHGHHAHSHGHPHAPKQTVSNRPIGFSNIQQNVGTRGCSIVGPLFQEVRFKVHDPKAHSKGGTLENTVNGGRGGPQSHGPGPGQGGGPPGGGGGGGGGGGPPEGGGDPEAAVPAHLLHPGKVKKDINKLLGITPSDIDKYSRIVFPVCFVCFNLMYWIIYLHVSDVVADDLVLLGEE
The assay is described as follows: [3H] muscimol radioligand binding assay, membranes of High Five cells infected with vBP8-Rdl. On the procedure: as §1
The reactions were incubated for 90 minutes at 4° C., and then terminated by filtration through Whatman GF/B glass fiber filters. Filters were washed with two 5 mL aliquots of cold buffer, and the radioactivity remaining on the filters was determined by liquid scintillation. Multiple assays were performed to test numerous compounds.

In assay [3] the target is Rat brain. The assay is described as follows: [3H] muscimol binding, rat brain (previous assays of the inventors). An excerpt: Data from fly heads and rat brains were obtained as described in Table 2.
For assay [4], the system named is insect cells infected with either vBP8-Grd, vBP8-LCCH3, or co-infected with vBP8-Grd and vBP8-LCCH3. Nature of the assay: Whole cell voltage clamp recordings of infected insect cells. The format is cell-based, Drosophila. The note with it: GABA applications of up to 1 mM, 30 to 36 hours post-infection, any of the three infected cell types. On the procedure:
Insect cells infected with either vBP8-Grd, vBP8-LCCH3, or co-infected with vBP8-Grd and vBP8-LCCH3 were analyzed for the expression and assembly of functional GABA-gated chloride channels. Whole cell voltage clamp recordings were made at between 30 and 36 hours post-infection. […] However, no specific [^3 H]EBOB binding was detected in cells infected with any combination of virus.

[5] abbreviates: half-maximal displacement of [3H] muscimol, read-out: IC50, Grd/LCCH3.
[6] abbreviates: half-maximal displacement of [3H] muscimol, read-out: IC50, Rdl.
The mark [7] stands for this setting: half-maximal displacement of [3H] muscimol, previous assays by the inventors.

Like-named read-outs stand apart in the source and are kept apart here. A value given as a limit tells only on which side of the number the result lay.

This note sets out measurements from patent US5854002A (Rhone Poulenc, Inc., priority 1996, dated 1998).

For the compound `NCCCCC(=O)O` [5-amino-valeric acid], the IC50 is 0.749 µM in assay [1] (setting [5]), 2.1 µM in assay [2] (setting [6]) and over 1000 µM in assay [3] (setting [7]).
As for `NCC(CC(=O)O)c1ccc(Cl)cc1` (centres unmarked) [Baclofen], the IC50 in assay [1] (setting [5]), in assay [2] (setting [6]) and in assay [3] (setting [7]) was over 1000 µM each time.
With `CN1CCc2cc3c(cc2[C@H]1[C@@H]1OC(=O)c2c1ccc1c2OCO1)OCO3` [Bicuculline], the IC50 in assay [1] was over 1000 µM; in assay [2] it was over 1000 µM; in assay [3] (setting [7]), 19 µM.
With `NCCCC(=O)O` [GABA, γ-aminobutyric acid], in assay [4], the “Depolarization in whole cell voltage clamp” value was “Depolarization was not detected”. Besides, in assay [1] (setting [5]), the IC50 stood at 0.038 µM.
For the compound `COc1ccc(-c2ccc(=N)n(CCCC(=O)O)n2)cc1` [Gabazine], the figures for the IC50 in assay [1] (setting [5]), in assay [2] (setting [6]) and in assay [3] were over 1000 µM, over 1000 µM and 0.483 µM, respectively.
In the case of `COc1ccc2c(c1OC)C(=O)O[C@@H]2[C@H]1c2cc3c(cc2CCN1C)OCO3` [Hydrastine], the IC50 in assay [1] was over 1000 µM; in assay [2] it was over 1000 µM; in assay [3] (setting [7]), 2.61 µM.
